Reference: the NIST ThermoML archive (doi:10.1021/je050416y)
± gives the expanded uncertainty stated by the source.

Assay: xn = mol fraction of the nth substance listed
Details: 101 kPa, Liquid; for mass density: Vibrating tube method

CC(C)CCO [3-methylbutan-1-ol] + CCO
mass density (293.15 K, x1 = 0.0268): 790.5 ± 1 kg/m3
mass density (293.15 K, x1 = 0.0549): 791.3 ± 1 kg/m3
mass density (293.15 K, x1 = 0.0845): 792.1 ± 1 kg/m3
mass density (293.15 K, x1 = 0.1156): 792.9 ± 1 kg/m3
mass density (293.15 K, x1 = 0.1484): 793.8 ± 1 kg/m3
mass density (293.15 K, x1 = 0.183): 794.7 ± 1 kg/m3
mass density (293.15 K, x1 = 0.2584): 796.6 ± 1 kg/m3
mass density (293.15 K, x1 = 0.3433): 798.5 ± 1 kg/m3
mass density (293.15 K, x1 = 0.4395): 800.4 ± 1 kg/m3
mass density (293.15 K, x1 = 0.5495): 802.4 ± 1 kg/m3
mass density (293.15 K, x1 = 0.6765): 804.3 ± 1 kg/m3
mass density (293.15 K, x1 = 0.8247): 806.3 ± 1 kg/m3
mass density (293.15 K, x1 = 1): 808.3 ± 1 kg/m3
kinematic viscosity (293.15 K, x1 = 0.0915): 1.55e-06 ± 7.3e-08 m2/s
kinematic viscosity (293.15 K, x1 = 0.1753): 1.61e-06 ± 7.6e-08 m2/s
kinematic viscosity (293.15 K, x1 = 0.2524): 1.68e-06 ± 7.8e-08 m2/s
kinematic viscosity (293.15 K, x1 = 0.3235): 1.75e-06 ± 8.1e-08 m2/s
kinematic viscosity (293.15 K, x1 = 0.3894): 1.83e-06 ± 8.5e-08 m2/s
kinematic viscosity (293.15 K, x1 = 0.4505): 1.93e-06 ± 8.9e-08 m2/s
kinematic viscosity (293.15 K, x1 = 0.5605): 2.19e-06 ± 1e-07 m2/s
kinematic viscosity (293.15 K, x1 = 0.6567): 2.51e-06 ± 1.1e-07 m2/s
kinematic viscosity (293.15 K, x1 = 0.7416): 2.89e-06 ± 1.3e-07 m2/s
kinematic viscosity (293.15 K, x1 = 0.817): 3.31e-06 ± 1.5e-07 m2/s
kinematic viscosity (293.15 K, x1 = 0.8844): 3.8e-06 ± 1.7e-07 m2/s
kinematic viscosity (293.15 K, x1 = 0.9451): 4.35e-06 ± 1.9e-07 m2/s
kinematic viscosity (293.15 K, x1 = 1): 5e-06 ± 2.2e-07 m2/s
mass density (298.15 K, x1 = 0.0268): 786.2 ± 1 kg/m3
mass density (298.15 K, x1 = 0.0549): 787 ± 1 kg/m3
mass density (298.15 K, x1 = 0.0845): 787.9 ± 1 kg/m3
mass density (298.15 K, x1 = 0.1156): 788.8 ± 1 kg/m3
mass density (298.15 K, x1 = 0.1484): 789.7 ± 1 kg/m3
mass density (298.15 K, x1 = 0.183): 790.6 ± 1 kg/m3
mass density (298.15 K, x1 = 0.2584): 792.5 ± 1 kg/m3
mass density (298.15 K, x1 = 0.3433): 794.5 ± 1 kg/m3
mass density (298.15 K, x1 = 0.4395): 796.5 ± 1 kg/m3
mass density (298.15 K, x1 = 0.5495): 798.5 ± 1 kg/m3
mass density (298.15 K, x1 = 0.6765): 800.5 ± 1 kg/m3
mass density (298.15 K, x1 = 0.8247): 802.6 ± 1 kg/m3
mass density (298.15 K, x1 = 1): 804.6 ± 1 kg/m3
kinematic viscosity (298.15 K, x1 = 0.0915): 1.42e-06 ± 6.8e-08 m2/s
kinematic viscosity (298.15 K, x1 = 0.1753): 1.48e-06 ± 7e-08 m2/s
kinematic viscosity (298.15 K, x1 = 0.2524): 1.54e-06 ± 7.3e-08 m2/s
kinematic viscosity (298.15 K, x1 = 0.3235): 1.61e-06 ± 7.5e-08 m2/s
kinematic viscosity (298.15 K, x1 = 0.3894): 1.69e-06 ± 7.9e-08 m2/s
kinematic viscosity (298.15 K, x1 = 0.4505): 1.78e-06 ± 8.3e-08 m2/s
kinematic viscosity (298.15 K, x1 = 0.5605): 2.01e-06 ± 9.2e-08 m2/s
kinematic viscosity (298.15 K, x1 = 0.6567): 2.28e-06 ± 1e-07 m2/s
kinematic viscosity (298.15 K, x1 = 0.7416): 2.6e-06 ± 1.2e-07 m2/s
kinematic viscosity (298.15 K, x1 = 0.817): 2.96e-06 ± 1.3e-07 m2/s
kinematic viscosity (298.15 K, x1 = 0.8844): 3.37e-06 ± 1.5e-07 m2/s
kinematic viscosity (298.15 K, x1 = 0.9451): 3.84e-06 ± 1.7e-07 m2/s
kinematic viscosity (298.15 K, x1 = 1): 4.35e-06 ± 1.9e-07 m2/s
mass density (303.15 K, x1 = 0.0268): 781.8 ± 1 kg/m3
mass density (303.15 K, x1 = 0.0549): 782.7 ± 1 kg/m3
mass density (303.15 K, x1 = 0.0845): 783.7 ± 1 kg/m3
mass density (303.15 K, x1 = 0.1156): 784.6 ± 1 kg/m3
mass density (303.15 K, x1 = 0.1484): 785.5 ± 1 kg/m3
mass density (303.15 K, x1 = 0.183): 786.5 ± 1 kg/m3
mass density (303.15 K, x1 = 0.2584): 788.5 ± 1 kg/m3
mass density (303.15 K, x1 = 0.3433): 790.5 ± 1 kg/m3
mass density (303.15 K, x1 = 0.4395): 792.5 ± 1 kg/m3
mass density (303.15 K, x1 = 0.5495): 794.6 ± 1 kg/m3
mass density (303.15 K, x1 = 0.6765): 796.7 ± 1 kg/m3
mass density (303.15 K, x1 = 0.8247): 798.7 ± 1 kg/m3
mass density (303.15 K, x1 = 1): 800.8 ± 1 kg/m3
kinematic viscosity (303.15 K, x1 = 0.0915): 1.27e-06 ± 6.1e-08 m2/s
kinematic viscosity (303.15 K, x1 = 0.1753): 1.32e-06 ± 6.3e-08 m2/s
kinematic viscosity (303.15 K, x1 = 0.2524): 1.38e-06 ± 6.6e-08 m2/s
kinematic viscosity (303.15 K, x1 = 0.3235): 1.45e-06 ± 6.9e-08 m2/s
kinematic viscosity (303.15 K, x1 = 0.3894): 1.52e-06 ± 7.2e-08 m2/s
kinematic viscosity (303.15 K, x1 = 0.4505): 1.61e-06 ± 7.5e-08 m2/s
kinematic viscosity (303.15 K, x1 = 0.5605): 1.81e-06 ± 8.4e-08 m2/s
kinematic viscosity (303.15 K, x1 = 0.6567): 2.05e-06 ± 9.4e-08 m2/s
kinematic viscosity (303.15 K, x1 = 0.7416): 2.33e-06 ± 1.1e-07 m2/s
kinematic viscosity (303.15 K, x1 = 0.817): 2.64e-06 ± 1.2e-07 m2/s
kinematic viscosity (303.15 K, x1 = 0.8844): 2.99e-06 ± 1.3e-07 m2/s
kinematic viscosity (303.15 K, x1 = 0.9451): 3.38e-06 ± 1.5e-07 m2/s
kinematic viscosity (303.15 K, x1 = 1): 3.81e-06 ± 1.7e-07 m2/s
mass density (308.15 K, x1 = 0.0268): 777.5 ± 1 kg/m3
mass density (308.15 K, x1 = 0.0549): 778.4 ± 1 kg/m3
mass density (308.15 K, x1 = 0.0845): 779.4 ± 1 kg/m3
mass density (308.15 K, x1 = 0.1156): 780.4 ± 1 kg/m3
mass density (308.15 K, x1 = 0.1484): 781.4 ± 1 kg/m3
mass density (308.15 K, x1 = 0.183): 782.4 ± 1 kg/m3
mass density (308.15 K, x1 = 0.2584): 784.4 ± 1 kg/m3
mass density (308.15 K, x1 = 0.3433): 786.5 ± 1 kg/m3
mass density (308.15 K, x1 = 0.4395): 788.6 ± 1 kg/m3
mass density (308.15 K, x1 = 0.5495): 790.7 ± 1 kg/m3
mass density (308.15 K, x1 = 0.6765): 792.9 ± 1 kg/m3
mass density (308.15 K, x1 = 0.8247): 795 ± 1 kg/m3
mass density (308.15 K, x1 = 1): 797.1 ± 1 kg/m3
